Reference: paper PMC6349357, “Computational and experimental analysis of bioactive peptide linear motifs in the integrin adhesome” (PLoS ONE, 2019)
No end group written: not given here. *: point of attachment. Palmitoyl = CCCCCCCCCCCCCCCC(=O)*

What was measured:
vinculin [1] = biological target: T1, vinculin (Homo sapiens, UniProt P18206); assay: Surface plasmon resonance, peptides injected over immobilised vinculin; type: binding; conditions: SPR, CM5 chip, serial peptide injections at 1 mM; rank order
T1 sequence (P18206 1-1066 isoform P18206-2): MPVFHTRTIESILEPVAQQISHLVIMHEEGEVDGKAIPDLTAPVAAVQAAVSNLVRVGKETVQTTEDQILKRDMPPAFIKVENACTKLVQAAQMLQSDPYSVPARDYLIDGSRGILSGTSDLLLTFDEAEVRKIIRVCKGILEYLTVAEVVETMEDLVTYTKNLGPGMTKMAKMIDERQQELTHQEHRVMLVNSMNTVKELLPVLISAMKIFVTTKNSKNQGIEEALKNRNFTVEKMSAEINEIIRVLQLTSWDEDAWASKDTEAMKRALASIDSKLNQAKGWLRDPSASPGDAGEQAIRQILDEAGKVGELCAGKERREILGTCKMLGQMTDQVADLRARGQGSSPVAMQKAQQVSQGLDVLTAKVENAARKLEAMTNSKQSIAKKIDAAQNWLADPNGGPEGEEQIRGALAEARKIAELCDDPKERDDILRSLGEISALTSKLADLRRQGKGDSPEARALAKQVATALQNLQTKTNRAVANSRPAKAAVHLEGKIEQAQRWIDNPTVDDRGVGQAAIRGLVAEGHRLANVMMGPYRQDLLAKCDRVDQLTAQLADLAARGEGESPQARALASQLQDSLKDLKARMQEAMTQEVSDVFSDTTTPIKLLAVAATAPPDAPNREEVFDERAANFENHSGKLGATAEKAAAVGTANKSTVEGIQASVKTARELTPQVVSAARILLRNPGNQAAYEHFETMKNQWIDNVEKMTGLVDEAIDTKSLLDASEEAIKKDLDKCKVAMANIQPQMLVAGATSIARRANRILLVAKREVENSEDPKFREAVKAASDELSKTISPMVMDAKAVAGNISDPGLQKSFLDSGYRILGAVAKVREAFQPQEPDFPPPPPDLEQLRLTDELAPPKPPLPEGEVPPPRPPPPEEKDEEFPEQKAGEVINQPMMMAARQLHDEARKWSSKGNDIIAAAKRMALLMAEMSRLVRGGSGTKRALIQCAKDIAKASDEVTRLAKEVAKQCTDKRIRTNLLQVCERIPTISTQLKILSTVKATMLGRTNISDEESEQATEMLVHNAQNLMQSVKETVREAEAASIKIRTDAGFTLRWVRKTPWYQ
Protocol: The SPR experiments were performed using a Biacore T200 system (GE Healthcare), and Series S CM5 or SA chips with 4 flow cells each.
Lyophilized vinculin was dissolved in flow buffer to a concentration of 1 mg/ml and covalently coupled onto the carboxymethylated dextran matrix of CM5 sensor chips using standard amine coupling. The flow buffer contained 10 mM HEPES, 150 mM NaCl, 3 mM EDTA, 0.05% surfactant P20. The chip was activated with an injection of 70 μl of a mixture of 0.05 M EDC and 0.2 M NHS, followed by the injection of approximately 70 μl of 10 μg/ml vinculin in 10 mM sodium acetate, pH 5.0 in one flow cell to yield a response of 7200 RU. Remaining reactive groups in the channel were blocked with an injection of 100 μl ethanolamine. Binding experiments were performed by injecting peptides for 120 s at a flow rate of 20 μl/min, at a concentration of 1 mM in the flow buffer over the chip surface to monitor association kinetics, followed by buffer flow for 120 s to measure dissociation kinetics. Between experiments, the surface was regenerated by injecting a 60 second pulse of 10 mM glycine pH 2.

resting platelets = assay: Platelet aggregation induced by peptide in resting washed platelets (activation); type: cell-based, human (healthy volunteers); conditions: peptide 50 µM; for Platelet activation, donor 14 06 13 / Platelet activation, donor 18 06 13 / Platelet activation, donor 22 08 13 DONOR1 / Platelet activation, donor 22 08 13 DONOR2: Fig S10 sheet, unit assumed; for Platelet activation, donor 14 06 13: replicate 14_06_13; for Platelet activation, donor 18 06 13: replicate 18_06_13; for Platelet activation, donor 22 08 13 DONOR1: replicate 22_08_13_DONOR1; for Platelet activation, donor 22 08 13 DONOR2: replicate 22_08_13_DONOR2
Method in brief: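 Aggregation was read by optical density at 37°C under 1100 rpm stirring. Samples were 3x10^5/μl washed human platelets, rested 45 min and supplemented with 1.8 mM calcium chloride. Peptide went in at 2 min, followed 6 min later by TRAP at an experiment-dependent concentration, with 7 min further recording.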

vinculin [2] = biological target: vinculin (UniProt P18206)
Syntenin-1 = Syntenin-1 (UniProt O00560)
Sequence of Syntenin-1 (O00560 whole entry): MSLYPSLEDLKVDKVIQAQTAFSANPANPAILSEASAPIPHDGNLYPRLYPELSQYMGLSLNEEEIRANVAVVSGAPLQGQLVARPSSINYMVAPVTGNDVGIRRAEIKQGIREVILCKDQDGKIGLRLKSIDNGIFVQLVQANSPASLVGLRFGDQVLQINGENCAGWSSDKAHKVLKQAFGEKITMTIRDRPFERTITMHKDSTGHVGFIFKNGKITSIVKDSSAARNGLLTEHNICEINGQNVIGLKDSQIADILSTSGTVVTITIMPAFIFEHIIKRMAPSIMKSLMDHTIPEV

For “ACTN1_VBS-tat: ACTN1 vinculin-binding peptide with the tat peptide at the C-terminus (WEQLLTTIARTINEVENQIGRKKRRQRRRPPQ)”, the “Relative binding affinity to immobilised vinculin” value (vinculin [1]) was “tat-ACTN1_VBS > TLN1_VBS-tat > ACTN1_VBS-tat > ACTN1_VBS”, the Platelet activation, donor 14 06 13 (resting platelets) was 45% and the Platelet activation, donor 18 06 13 (resting platelets) was 11%. The Platelet activation, donor 22 08 13 DONOR1 (resting platelets) was 32%, the Platelet activation, donor 22 08 13 DONOR2 (resting platelets) was 4% and the “Platelet activating effect compared with N-terminal tat attachment” value (resting platelets; S10 Fig, in words) was “weaker platelet activating effect”.

In the case of “ACTN1_VBS: ACTN1_VBS peptide lacking the tat (WEQLLTTIARTINEVENQI)”, the “Relative binding affinity to immobilised vinculin” value (vinculin [1]) is reported as “tat-ACTN1_VBS > TLN1_VBS-tat > ACTN1_VBS-tat > ACTN1_VBS”, the Platelet activation, donor 14 06 13 (resting platelets) is reported as 35% and the Platelet activation, donor 18 06 13 (resting platelets) is reported as 11%. The Platelet activation, donor 22 08 13 DONOR1 (resting platelets) was 7% and the Platelet activation, donor 22 08 13 DONOR2 (resting platelets) was 11%.

tat-ACTN1_VBS (peptide) was tested, and the Activation: platelet aggregation induced in resting platelets after 6 minutes incubation with peptides (50μM) (vinculin [2]) was 66.

B1: pal-SDC4_tail (peptide)
peptide: Palmitoyl-APTNEFYA
B1 was tested, and the Inhibition: platelet aggregation induced by 4μM TRAP in platelets pre-incubated with peptide (20μM) (Syntenin-1) was 34.
